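Tested at 5 concentrations; 48 h exposure; 96-well plates; endpoints linearly interpolated, else capped at highest concentration. Definition used: TGI = concentration required for complete inhibition of growth.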 Where a SMILES comes first, the peptide text is derived from it. [ ]: non-standard residue; d: D form. The star is where a group is joined. ξ: configuration not given here. ξF = NC(Cc1ccccc1)C(=O)O; Cbz = O=C(OCc1ccccc1)*
Columns and labels:
Assay in all cases: DTP human tumour cell line panel, 48 h
ACHN renal = system: ACHN renal
CCRF-CEM leukemia = system: CCRF-CEM leukemia
IGROV1 ovarian = system: IGROV1 ovarian
MALME-3M melanoma = system: MALME-3M melanoma
NCI-H460 lung = system: NCI-H460 lung
OVCAR-3 ovarian = system: OVCAR-3 ovarian
SNB-19 CNS = system: SNB-19 CNS
SNB-75 CNS = system: SNB-75 CNS
SR leukemia = system: SR leukemia
UACC-257 melanoma = system: UACC-257 melanoma
UACC-62 melanoma = system: UACC-62 melanoma
SN12C renal = system: SN12C renal

SMILES	TGI (ACHN renal) [µM]	TGI (CCRF-CEM leukemia) [µM]	TGI (IGROV1 ovarian) [µM]	TGI (MALME-3M melanoma) [µM]	TGI (NCI-H460 lung) [µM]	TGI (OVCAR-3 ovarian) [µM]	TGI (SNB-19 CNS) [µM]	TGI (SNB-75 CNS) [µM]	TGI (SR leukemia) [µM]	TGI (UACC-257 melanoma) [µM]	TGI (UACC-62 melanoma) [µM]	TGI (SN12C renal) [µM]
C=CCON(C(=O)OC(C)(C)C)C(C)(C)C	> 100	> 100	> 100	> 100	> 100	> 100	> 100	> 100	> 100	> 100	> 100	
COC(=O)c1cc(S(=O)(=O)NC2=NCC(C)NN2)c(S)cc1Cl (stereo unspecified)	> 100	> 100	> 100	97.5	> 100	> 100	> 100	75.3	> 100	> 100	> 100	> 100
CCCCCCCCOCC(COC(=O)CCCCCCC)OC(=O)CCCCCCC (stereo unspecified)	> 100	> 100	> 100	> 100	> 100	> 100	> 100		> 100	> 100	> 100	> 100
Cc1ccc(N=N/C(=N/NC(=O)c2ccccc2)c2ccc(N(CCC#N)CCC#N)cc2C)cc1	> 100	> 100	> 100	> 100	> 100	> 100	> 100	> 100	> 100	> 100	> 100	> 100
N#Cc1c(NC(=O)C(F)(F)F)sc2c3c(=O)c4ccccc4c(=O)c=3oc3ccccc3c12	> 58	12.5	48.7	13.1	36.5	> 80.1	49.5	39.4	13.5	35.7	26	55.3
Cc1ccc(OCC2OC(n3cnc4c(Cl)nc(Nc5cc(Cl)cc(Cl)c5)nc43)CC2Oc2ccc(C)cc2)cc1 (stereo unspecified)	> 100	> 100	> 100	> 100	> 100	> 100	> 100	> 100	> 100	> 100	> 100	> 100
O=C(c1ccccc1)C1(Br)S(=O)(=O)OCCOS1(=O)=O	> 100	> 100	> 100	> 100	> 100	> 100	> 100	> 100	> 100	> 100	> 100	> 100
CCOC(=O)c1c(NC(=O)c2ccccc2)c(C#N)c2n1CCCCC2	> 100	> 100	> 100	> 100	> 100		> 100	> 100	> 100	> 100	> 100	> 100
O=C1CC(O)c2cscc21 (stereo unspecified)	> 100	45.8	> 100	> 100	> 100	> 100		> 100	> 100	> 100	> 100	> 100
Cc1ccc(S[C@@](C=O)(NC(=O)OCc2ccccc2)C(F)(F)F)cc1		52.3	54.3	78.3	79.3	> 100	62.4	80	44.4	> 100	40.4	91.7
COc1ccccc1C1c2cc3c(cc2OC2(OC)COC(=O)C12)OCO3 (stereo unspecified)	> 100	75.6	> 100	> 100	> 100	69.3	> 77.6	43.1	> 28.8	> 100	60.1	> 100
Oc1c(N2CCCCC2)cc(-c2cc(N3CCCCC3)c(O)c3ccccc23)c2ccccc12	> 100	> 100	> 100	24.3	> 100	> 100	> 100		16.2	28.5	51.6	> 100
O=C(O)CCCc1ccc2c(c1)CC1(C2)Cc2cc3c(cc2C1)CCCC3	33.1	27.9	41.4	41.5		35.2			40.7	> 100	> 100	44.1
COC1(OC)c2occc2C(=N)c2ccc(=O)oc21	> 100	> 100	> 100	33.5	> 100	> 100	> 100		> 100	> 100	> 100	> 100
C=CCC(CCC(C)=O)(C(=O)OCC)C(=O)OCC	> 100	> 100	> 100	> 100	> 100	> 100	> 100	> 100	> 100	> 100	> 100	> 100
Cc1cc(C)c(-c2no/c(=N\S(=O)(=O)c3ccc(Cl)cc3)o2)c(C)c1	> 100	> 100	> 100	> 100	> 100	> 100	> 100	> 100	55	> 100	> 100	> 100
CCOC(=O)C1S(=O)(=O)OCCOS1(=O)=O		> 100	> 100	> 100		> 100	> 100	> 100	> 100	> 100	> 100	> 100
C[C@@H]1CC[C@]2(C)C3(C)CC[C@]2(OC3=O)[C@@]12CC(c1ccoc1)OC2=O (stereo partly specified)	43.6	65.9	64.7	41.2	> 100	58.2	> 100		81		> 100	95.5
CC(C)(CN1CCCCC1)C(=O)/C=C/c1ccc(Br)cc1	14.5	9.34	6.48	17.4	> 20.4	5.51	4.75	14.9	7.68	20.3	> 22.9	7.66

SMILES	TGI (ACHN renal) [µM]	TGI (CCRF-CEM leukemia) [µM]	TGI (IGROV1 ovarian) [µM]	TGI (MALME-3M melanoma) [µM]	TGI (NCI-H460 lung) [µM]	TGI (OVCAR-3 ovarian) [µM]	TGI (SNB-19 CNS) [µM]	TGI (SNB-75 CNS) [µM]	TGI (SR leukemia) [µM]	TGI (UACC-257 melanoma) [µM]	TGI (UACC-62 melanoma) [µM]	TGI (SN12C renal) [µM]
CCOC(=O)CNC(=O)C(Cc1ccccc1)NC(=O)OCc1ccccc1 (stereo unspecified) (Cbz-[ξF]-Gly-OEt)	> 100	> 100	> 100	> 100	> 100	> 100	> 100	> 100	> 100			> 100
CCCCCCCCCCCCCCCCCCNc1ccn(C2OC(COP(=O)(O)OCC3OC(n4ccc(N)nc4=O)C(O)C3O)C(O)C2O)c(=O)n1 (stereo unspecified)	> 100	> 100	> 100	> 100	> 78.8	> 100	> 100	> 100	> 100	> 100	> 100	> 100
CCN1/C(=C/C#C/C(C)=C\c2sc3ccc(Cl)cc3[n+]2CC)Sc2ccc(Cl)cc21	14.8	> 100	14.5	6.84	> 100		18.9	9.98	> 100	22	13.6	16.1
Cc1cc(N(CCC#N)CCC#N)ccc1/C(N=Nc1ccccc1)=N\NC(=O)c1cc(Cl)ccc1O	42.6	96.3	> 100	78.3	57.5	72.8	> 100	> 100	79.5	40.5	27.7	> 100
C1CCC(N=C2N(C3CCCCC3)C(=NC3CCCCC3)N2C2CCCCC2)CC1	> 100	> 100	> 100	> 100	> 100	> 100	> 100	> 100	> 100	> 100	> 100	> 100
O=C1c2ccccc2N2OC3(N4CCOCC4)CCCC3C12c1ccccc1 (stereo unspecified)	> 100	> 100	> 100	> 100			> 100	> 100	> 100	> 100	> 100	> 100
CCOC(=O)/C(=C/c1ccccn1)C(=O)c1ccccc1	> 56.2	> 31	32.8	27.3	> 62.8	27.4	31.8	27.5	14.2	27.9	24	27.2
NNC(=O)C(=O)NN=C(C(Cl)(Cl)CO)C(Cl)(Cl)CO	> 100	61.2	> 100	44.4	> 100	68	> 100	86.8	50.6	> 100	> 100	> 100
CSC(=O)/C=C1\SS/C(=C\C(=O)SC)S1	10.2	> 100	11.6	4.6	7.61	11.2	20.7	10.5	> 100	11.3	2.87	3.79
COC(=O)[C@@H]1[C@@H]2NC(=S)N[C@@]1(C)Oc1ccccc12	> 100	> 100	> 100	> 100	> 100	> 100	> 100	> 100	> 100	> 100	> 100	> 100
C=C1CC[C@@H](CCC2CCC3(OC2)O[C@]2(O)CC[C@@]3(C)OC2(C)C)C(C)(C)[C@H]1C/C=C1\CCOC1=O (stereo partly specified)	> 100	83	> 100	55.2	82.7	54.8	> 100	> 92.4	> 52.2	> 67.6	> 100	51.1
COc1ccc2ccccc2c1C1=NC(C)(C)CO1	> 100	> 100	> 100	> 100	> 100	> 100	> 100	> 100	> 100	> 100	> 100	> 100
NCCOc1cccc(C2(N3CCCCC3)CCCCC2)c1	> 100	35.8		35.1	> 100	> 100	> 100	> 100	34.8	34	44.2	> 100
COC(=O)[C@@H]1CO[C@H](C(C)(C)C)N1C(=O)N1C=CC(=O)C[C@H]1C	> 100	> 100	> 100	> 100		> 100		> 100	> 100	> 100	> 100	> 100
COc1cc2nc(Cl)nc(NS(=O)(=O)c3cc4ccccc4s3)c2cc1OC	99.6	33	71.8	> 100	> 100	44.7	48.6	60	60.6	> 100	39.3	90.6
COc1ccc(-c2oc3cc(-c4cc5oc(-c6ccc(OC)cc6)c(-c6ccc(OC)cc6)c5cc4OC)c(OC)cc3c2-c2ccc(OC)cc2)cc1	> 100	> 100	> 100	> 100	> 100	> 100	> 100	> 100	> 100	> 100	> 100	> 100
COC(=O)C(C(=O)C(=O)Nc1c(Cl)cc([N+](=O)[O-])cc1Cl)c1csc(-n2nc(C3=CCCCC3)cc2-c2ccccc2)n1 (stereo unspecified)	> 100	> 100		> 100	> 100	> 100	> 100	> 100	78	> 100	> 100	> 100
N#Cc1ccccc1OCCOc1ccccc1C#N	> 100	> 100	> 100	> 100	> 100	> 100	> 100	> 100	> 100	> 100	> 100	> 100
COC(=O)/C=C(\C(=O)OC)c1cc(C)c2cc(C(C)C)ccc(C)c1-2	> 100	> 100	> 100	> 100	> 100	> 100	> 100		> 100		> 100	> 100

Reference: PubChem BioAssay (NCI)
